Laboratory results published in patent US12065436B2, “Cardiac sarcomere inhibitors” (Cytokinetics, Inc., priority 2018, dated 2024).

Biological target: bovine cardiac myofibrils (full-length cardiac myosin ATPase in the native sarcomere) (Bos taurus (Bovine), UniProt Q9BE39)
Experiment: Skinned bovine cardiac myofibril ATPase assay (PK/LDH-coupled)
Type: biochemical
Conditions: Ca2+ activating to 75% of maximal rate; for CDMF75 IC15: concentration giving 15% inhibition; for IC50: read-out: CDMF75 IC50
Summary of the method: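 Triton-skinned bovine left-ventricle myofibrils (1 mg/mL) in PM 12 buffer (12 mM PIPES, 2 mM MgCl2, pH 6.8) with 50 μM ATP, 0.6 mM EGTA and CaCl2 set for 50% or 75% activation. Steady-state ATPase inhibition followed by PK/LDH-coupled NADH oxidation at 340 nm.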

bovine cardiac myofibrils (full-length cardiac myosin ATPase in the native sarcomere), sequence (Q9BE39 whole entry): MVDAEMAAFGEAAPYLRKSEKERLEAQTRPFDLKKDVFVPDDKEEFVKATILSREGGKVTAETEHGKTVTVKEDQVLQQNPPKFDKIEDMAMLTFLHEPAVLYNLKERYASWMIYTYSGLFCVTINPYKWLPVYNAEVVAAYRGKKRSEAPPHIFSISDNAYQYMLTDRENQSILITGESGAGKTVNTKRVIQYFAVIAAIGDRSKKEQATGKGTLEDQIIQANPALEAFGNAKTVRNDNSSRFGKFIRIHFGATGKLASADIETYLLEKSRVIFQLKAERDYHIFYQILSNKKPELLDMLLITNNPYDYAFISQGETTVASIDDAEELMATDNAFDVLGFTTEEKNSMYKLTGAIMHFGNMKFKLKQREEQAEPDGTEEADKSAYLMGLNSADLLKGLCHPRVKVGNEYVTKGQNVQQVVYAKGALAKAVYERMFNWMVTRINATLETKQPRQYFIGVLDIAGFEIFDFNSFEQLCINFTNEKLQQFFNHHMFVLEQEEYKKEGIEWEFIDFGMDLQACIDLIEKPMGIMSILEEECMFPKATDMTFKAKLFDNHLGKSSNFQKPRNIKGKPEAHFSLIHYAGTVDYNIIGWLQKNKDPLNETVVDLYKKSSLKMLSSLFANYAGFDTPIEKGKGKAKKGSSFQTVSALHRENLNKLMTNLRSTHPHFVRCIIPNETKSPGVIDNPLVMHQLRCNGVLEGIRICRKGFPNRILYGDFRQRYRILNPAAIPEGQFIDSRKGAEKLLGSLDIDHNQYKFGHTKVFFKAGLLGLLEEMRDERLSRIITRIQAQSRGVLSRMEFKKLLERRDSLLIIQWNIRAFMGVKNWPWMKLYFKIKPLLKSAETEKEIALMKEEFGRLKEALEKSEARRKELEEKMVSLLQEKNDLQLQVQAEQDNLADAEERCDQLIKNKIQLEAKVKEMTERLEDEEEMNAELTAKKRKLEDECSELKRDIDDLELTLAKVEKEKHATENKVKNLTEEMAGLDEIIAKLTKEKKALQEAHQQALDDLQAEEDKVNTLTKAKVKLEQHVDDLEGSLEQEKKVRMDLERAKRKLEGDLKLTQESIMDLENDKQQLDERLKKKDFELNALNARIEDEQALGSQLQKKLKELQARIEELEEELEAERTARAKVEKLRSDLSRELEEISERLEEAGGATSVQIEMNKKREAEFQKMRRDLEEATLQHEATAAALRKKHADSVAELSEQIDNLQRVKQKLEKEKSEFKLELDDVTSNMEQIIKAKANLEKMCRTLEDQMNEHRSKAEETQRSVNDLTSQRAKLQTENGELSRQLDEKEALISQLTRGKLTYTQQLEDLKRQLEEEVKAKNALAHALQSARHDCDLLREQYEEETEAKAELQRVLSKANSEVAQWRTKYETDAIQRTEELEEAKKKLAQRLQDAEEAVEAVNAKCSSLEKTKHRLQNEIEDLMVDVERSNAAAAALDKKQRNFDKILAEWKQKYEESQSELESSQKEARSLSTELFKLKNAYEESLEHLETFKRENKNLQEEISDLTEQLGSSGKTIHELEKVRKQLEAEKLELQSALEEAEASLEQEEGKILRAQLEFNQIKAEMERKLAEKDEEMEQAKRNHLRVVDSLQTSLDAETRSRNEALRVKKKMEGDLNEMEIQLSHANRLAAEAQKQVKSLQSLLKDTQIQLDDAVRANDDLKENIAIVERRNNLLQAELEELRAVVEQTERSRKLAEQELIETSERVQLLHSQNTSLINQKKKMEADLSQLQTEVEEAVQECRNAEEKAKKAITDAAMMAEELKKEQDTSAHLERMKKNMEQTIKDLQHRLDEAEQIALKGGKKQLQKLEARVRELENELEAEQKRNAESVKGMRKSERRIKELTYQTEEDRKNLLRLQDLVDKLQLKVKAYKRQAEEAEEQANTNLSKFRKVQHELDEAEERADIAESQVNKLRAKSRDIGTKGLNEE
bovine cardiac myofibrils (full-length cardiac myosin ATPase in the native sarcomere), sequence (P85100 whole entry partner): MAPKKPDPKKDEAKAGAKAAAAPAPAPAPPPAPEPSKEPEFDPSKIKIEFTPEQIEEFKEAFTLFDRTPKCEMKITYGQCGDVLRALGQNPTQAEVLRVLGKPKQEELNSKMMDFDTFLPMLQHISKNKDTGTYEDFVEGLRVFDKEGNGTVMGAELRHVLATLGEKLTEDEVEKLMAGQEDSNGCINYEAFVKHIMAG
bovine cardiac myofibrils (full-length cardiac myosin ATPase in the native sarcomere), sequence (Q3SZE5 whole entry partner): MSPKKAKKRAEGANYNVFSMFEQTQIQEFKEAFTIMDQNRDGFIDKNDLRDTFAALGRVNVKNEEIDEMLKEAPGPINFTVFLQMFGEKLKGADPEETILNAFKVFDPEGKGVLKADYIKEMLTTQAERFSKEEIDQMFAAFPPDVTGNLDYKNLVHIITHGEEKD

Row | Structure (SMILES) | CDMF75 IC15 | IC50
1 | O=C(N[C@@H]1CCc2cc(-c3noc(C(F)F)n3)ccc21)C1CCCC1 [Compound 287, (R)-N-(5-(5-(difluoromethyl)-1,2,4-oxadiazol-3-yl)-2,3-dihydro-1H-inden-1-yl)cyclopentanecarboxamide] | 39.2 µM | > 39.2 µM
2 | O=C(N[C@@H]1CCc2cc(-c3noc(C(F)F)n3)ccc21)C1COC1 [Compound 288, (R)-N-(5-(5-(difluoromethyl)-1,2,4-oxadiazol-3-yl)-2,3-dihydro-1H-inden-1-yl)oxetane-3-carboxamide] | 10.6 µM | > 39.2 µM
3 | O=C(NC1CC1)N[C@@H]1CCc2cc(-c3noc(C(F)F)n3)ccc21 [Compound 289, (R)-1-cyclopropyl-3-(5-(5-(difluoromethyl)-1,2,4-oxadiazol-3-yl)-2,3-dihydro-1H-inden-1-yl)urea] | 39.2 µM | > 39.2 µM
4 | CC(C)(O)C(=O)N[C@@H]1CCc2cc(-c3noc(C(F)F)n3)ccc21 [Compound 290, (R)-N-(5-(5-(difluoromethyl)-1,2,4-oxadiazol-3-yl)-2,3-dihydro-1H-inden-1-yl)-2-hydroxy-2-methylpropanamide] | 39.2 µM | > 39.2 µM
5 | O=C(N[C@@H]1CCc2cc(-c3noc(C(F)F)n3)ccc21)OC1CNC1 [Compound 291, azetidin-3-yl (R)-(5-(5-(difluoromethyl)-1,2,4-oxadiazol-3-yl)-2,3-dihydro-1H-inden-1-yl)carbamate] | 17.3 µM | > 39.2 µM
6 | CC(C)NC(=O)N[C@@H]1CCc2cc(-c3noc(C(F)F)n3)ccc21 [Compound 292, (R)-1-(5-(5-(difluoromethyl)-1,2,4-oxadiazol-3-yl)-2,3-dihydro-1H-inden-1-yl)-3-isopropylurea] | 39.2 µM | > 39.2 µM
7 | O=C(N[C@@H]1CCc2cc(-c3noc(C(F)F)n3)ccc21)C1CCCO1 (stereo partly drawn) [Compound 293, N-((R)-5-(5-(difluoromethyl)-1,2,4-oxadiazol-3-yl)-2,3-dihydro-1H-inden-1-yl)tetrahydrofuran-2-carboxamide] | 20.4 µM | > 39.2 µM
8 | O=C(N[C@@H]1CCc2cc(-c3noc(C(F)F)n3)ccc21)C1CCOC1 (stereo partly drawn) [Compound 294, N-((R)-5-(5-(difluoromethyl)-1,2,4-oxadiazol-3-yl)-2,3-dihydro-1H-inden-1-yl)tetrahydrofuran-3-carboxamide] | 15.6 µM | > 39.2 µM
9 | CNC(=O)N[C@@H]1CCc2cc(-c3noc(C(F)F)n3)ccc21 [Compound 295, (R)-1-(5-(5-(difluoromethyl)-1,2,4-oxadiazol-3-yl)-2,3-dihydro-1H-inden-1-yl)-3-methylurea] | 4.9 µM | > 39.2 µM
10 | CCNC(=O)N[C@@H]1CCc2cc(-c3noc(C(F)F)n3)ccc21 [Compound 296, (R)-1-(5-(5-(difluoromethyl)-1,2,4-oxadiazol-3-yl)-2,3-dihydro-1H-inden-1-yl)-3-ethylurea] | 5.8 µM | > 39.2 µM
11 | O=C(NC1CCC1)N[C@@H]1CCc2cc(-c3noc(C(F)F)n3)ccc21 [Compound 297, (R)-1-cyclobutyl-3-(5-(5-(difluoromethyl)-1,2,4-oxadiazol-3-yl)-2,3-dihydro-1H-inden-1-yl)urea] | 39.2 µM | > 39.2 µM
12 | O=C(NC1CCCC1)N[C@@H]1CCc2cc(-c3noc(C(F)F)n3)ccc21 [Compound 298, (R)-1-cyclopentyl-3-(5-(5-(difluoromethyl)-1,2,4-oxadiazol-3-yl)-2,3-dihydro-1H-inden-1-yl)urea] | 39.2 µM | > 39.2 µM
13 | CN(C)C(=O)N[C@@H]1CCc2cc(-c3noc(C(F)F)n3)ccc21 [Compound 299, (R)-3-(5-(5-(difluoromethyl)-1,2,4-oxadiazol-3-yl)-2,3-dihydro-1H-inden-1-yl)-1,1-dimethylurea] | 6.7 µM | 30.9 µM
14 | O=C(N[C@@H]1CCc2cc(-c3noc(C(F)F)n3)ccc21)N1CCCC1 [Compound 300, (R)-N-(5-(5-(difluoromethyl)-1,2,4-oxadiazol-3-yl)-2,3-dihydro-1H-inden-1-yl)pyrrolidine-1-carboxamide] | 12.3 µM | > 39.2 µM
15 | O=C(N[C@@H]1CCc2cc(-c3noc(C(F)F)n3)ccc21)N1CCOCC1 [Compound 301, (R)-N-(5-(5-(difluoromethyl)-1,2,4-oxadiazol-3-yl)-2,3-dihydro-1H-inden-1-yl)morpholine-4-carboxamide] | 9.5 µM | > 39.2 µM
16 | CN1CCN(C(=O)N[C@@H]2CCc3cc(-c4noc(C(F)F)n4)ccc32)CC1 [Compound 302, (R)-N-(5-(5-(difluoromethyl)-1,2,4-oxadiazol-3-yl)-2,3-dihydro-1H-inden-1-yl)-4-methylpiperazine-1-carboxamide] | 39.2 µM | > 39.2 µM
17 | COC(=O)N[C@@H]1CCc2cc(-c3noc(C)n3)ccc21 [Compound 303, methyl (R)-(5-(5-methyl-1,2,4-oxadiazol-3-yl)-2,3-dihydro-1H-inden-1-yl)carbamate] | 0.6 µM | 2.7 µM

Row | Structure (SMILES) | CDMF75 IC15 | IC50
18 | COC(=O)N[C@@H]1CCc2cc(-c3noc(C4CC4)n3)ccc21 [Compound 305, methyl (R)-(5-(5-cyclopropyl-1,2,4-oxadiazol-3-yl)-2,3-dihydro-1H-inden-1-yl)carbamate] | 0.3 µM | 1.2 µM
19 | COCc1nc(-c2ccc3c(c2)CC[C@H]3NC(=O)OC)no1 [Compound 306, methyl (R)-(5-(5-(methoxymethyl)-1,2,4-oxadiazol-3-yl)-2,3-dihydro-1H-inden-1-yl)carbamate] | 0.9 µM | 3.7 µM
20 | COC(=O)N[C@@H]1CCc2cc(-c3noc(C(C)C)n3)ccc21 [Compound 307, methyl (R)-(5-(5-isopropyl-1,2,4-oxadiazol-3-yl)-2,3-dihydro-1H-inden-1-yl)carbamate] | 0.6 µM | 2.9 µM
21 | [2H]C([2H])([2H])c1nc(-c2ccc3c(c2)CC[C@H]3NC(=O)OC)no1 [Compound 308, methyl (R)-(5-(5-(methyl-d3)-1,2,4-oxadiazol-3-yl)-2,3-dihydro-1H-inden-1-yl)carbamate] | 0.7 µM | 2.8 µM
22 | O=C(N[C@@H]1CCc2cc(-c3noc(C(F)F)n3)ccc21)C1CCC1 [Compound 309, (R)-N-(5-(5-(difluoromethyl)-1,2,4-oxadiazol-3-yl)-2,3-dihydro-1H-inden-1-yl)cyclobutanecarboxamide] | 39.2 µM | > 39.2 µM
23 | O=C(N[C@@H]1CCc2cc(-c3noc(C(F)F)n3)ccc21)C1CC1 [Compound 310, (R)-N-(5-(5-(difluoromethyl)-1,2,4-oxadiazol-3-yl)-2,3-dihydro-1H-inden-1-yl)cyclopropanecarboxamide] | 2.9 µM | 11.3 µM
24 | [2H]C([2H])([2H])c1noc(-c2ccc3c(c2)OC[C@H]3NC(=O)c2cnn(C)c2)n1 [Compound 311, (S)-1-methyl-N-(6-(3-(methyl-d3)-1,2,4-oxadiazol-5-yl)-2,3-dihydrobenzofuran-3-yl)-1H-pyrazole-4-carboxamide] | 1.8 µM | 6.3 µM
25 | [2H]C([2H])([2H])c1noc(-c2ccc3c(c2)OC[C@H]3NC(=O)c2ccnn2C)n1 [Compound 312, (S)-1-methyl-N-(6-(3-(methyl-d3)-1,2,4-oxadiazol-5-yl)-2,3-dihydrobenzofuran-3-yl)-1H-pyrazole-5-carboxamide] | 0.7 µM | 2.4 µM
26 | Cc1noc(-c2ccc3c(c2)OC[C@H]3NC(=O)c2cnn(C)c2)n1 [Compound 313, (S)-1-methyl-N-(6-(3-methyl-1,2,4-oxadiazol-5-yl)-2,3-dihydrobenzofuran-3-yl)-1H-pyrazole-4-carboxamide] | 1.6 µM | 6.5 µM
27 | Cc1noc(-c2ccc3c(c2)OC[C@H]3NC(=O)c2ccnn2C)n1 [Compound 314, (S)-1-methyl-N-(6-(3-methyl-1,2,4-oxadiazol-5-yl)-2,3-dihydrobenzofuran-3-yl)-1H-pyrazole-5-carboxamide] | 0.7 µM | 2.4 µM
28 | O=C1C[C@H](C(=O)N[C@@H]2CCc3cc(-c4noc(C5CC5)n4)ccc32)N1 [Compound 315, (R)-N-((R)-5-(5-cyclopropyl-1,2,4-oxadiazol-3-yl)-2,3-dihydro-1H-inden-1-yl)-4-oxoazetidine-2-carboxamide] | 6.1 µM | 26.4 µM
29 | O=C1C[C@@H](C(=O)N[C@@H]2CCc3cc(-c4noc(C5CC5)n4)ccc32)N1 [Compound 316, (S)-N-((R)-5-(5-cyclopropyl-1,2,4-oxadiazol-3-yl)-2,3-dihydro-1H-inden-1-yl)-4-oxoazetidine-2-carboxamide] | 15.6 µM | > 39.2 µM
30 | CCC(=O)N[C@@H]1CCc2cc(-c3noc(CC)n3)ccc21 [Compound 317, (R)-N-(5-(5-ethyl-1,2,4-oxadiazol-3-yl)-2,3-dihydro-1H-inden-1-yl)propionamide] | 2.7 µM | 12.1 µM
31 | Cc1nc(-c2ccc3c(c2)CC[C@H]3NC(=O)OC2CCC2)no1 [Compound 319, cyclobutyl (R)-(5-(5-methyl-1,2,4-oxadiazol-3-yl)-2,3-dihydro-1H-inden-1-yl)carbamate] | 1.3 µM | 5.3 µM
32 | Cc1nc(-c2ccc3c(c2)CC[C@H]3NC(=O)OCC(C)C)no1 [Compound 320, isobutyl (R)-(5-(5-methyl-1,2,4-oxadiazol-3-yl)-2,3-dihydro-1H-inden-1-yl)carbamate] | 0.7 µM | 3.1 µM
33 | CCc1nc(-c2ccc3c(c2)CC[C@H]3NC(=O)OC2CCC2)no1 [Compound 321, cyclobutyl (R)-(5-(5-ethyl-1,2,4-oxadiazol-3-yl)-2,3-dihydro-1H-inden-1-yl)carbamate] | 0.4 µM | 1.3 µM
